{
  "source": "patent US11052154B2",
  "about": "“Ras protein degradation inducing molecule and pharmaceutical composition” (Tokyo University of Science Foundation, priority 2016, dated 2021)",
  "key": {"[1]": {"target": "T1, G12V mutant K-Ras protein (Homo sapiens, UniProt P01116, G12V)", "T1 construct": "expressed in transfected cells; host or cells: HeLa", "T1 sequence (P01116 1-188 isoform P01116-2 G12V)": "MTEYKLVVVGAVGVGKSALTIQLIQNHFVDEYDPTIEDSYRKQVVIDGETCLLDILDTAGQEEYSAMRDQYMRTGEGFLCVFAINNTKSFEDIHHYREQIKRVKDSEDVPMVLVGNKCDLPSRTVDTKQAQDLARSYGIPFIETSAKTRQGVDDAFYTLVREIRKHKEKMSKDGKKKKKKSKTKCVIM", "assay": "Degradation (knockdown) of G12V mutant K-Ras protein forcibly expressed in HeLa cells, FACS analysis", "assay_type": "cell-based", "conditions": "FIG. 3", "description": "DMSO was used as a control."}, "wild-type K-Ras protein": {"target": "T2, wild-type K-Ras protein (Homo sapiens, UniProt P01116)", "T2 construct": "expressed in transfected cells; host or cells: HeLa", "T2 sequence (P01116 1-188 isoform P01116-2)": "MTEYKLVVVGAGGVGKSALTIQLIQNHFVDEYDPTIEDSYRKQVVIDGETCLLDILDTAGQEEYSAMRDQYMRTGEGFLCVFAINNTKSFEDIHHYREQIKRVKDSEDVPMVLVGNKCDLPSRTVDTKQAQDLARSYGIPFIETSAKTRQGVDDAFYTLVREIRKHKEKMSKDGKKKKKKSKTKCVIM", "assay": "Degradation (knockdown) of wild-type K-Ras protein forcibly expressed in HeLa cells, Western blot analysis", "assay_type": "cell-based", "conditions": "FIG. 2", "experimental": "In Example 3, degradation (knockdown) of a forcibly expressed wild-type K-Ras protein in HeLa cells through TUS-007 was evaluated by Western blot analysis.\nA plasmid expressing the wild-type K-Ras protein (K-Ras-WT) was prepared, as in Example 2.\nAs in Example 2, the plasmid was introduced into HeLa cells to transiently overexpress the wild-type K-Ras protein (specifically, a fusion protein of the wild-type K-Ras protein and GFP through a HA tag) or a DsRed protein for comparison in the cells. HeLa cells into which the plasmid had been introduced were seeded in a 24-well plate at a cell density of 4×10^4 cells/well, and then cultured under conditions of 37° C. and 5 vol % CO2 for 40 hours.\nCulture was performed for 40 hours after introduction of the plasmid, and then TUS-007 was added to HeLa cells as follows. […]\nAfter electrophoresis, proteins were transferred to a PVDF membrane (Immobion™-P, Millipore) under conditions of 100 V and 120 minutes using a tank-type blotting device and a transfer buffer (25 mM Tris-HCl, 195 mM glycine, 0.01% SDS, 15% methanol). […] Subsequently, the membrane was treated with a chemiluminescence reagent Immobilon™ Western (Millipore), and then chemiluminescence was detected using a lumino image analyzer LAS-3000 (FUJIFILM Corporation). […]"}},
  "data": [
    {"smiles": "CCC(C)[C@H](NC(=O)CCCCCCNC(=O)[C@H](CC(C)C)NC(=O)CNC(=O)c1cc(Cl)ccc1Cl)C(=O)Nc1ccc2[nH]c(Cc3c[nH]c4ccccc34)nc2c1", "note": "(stereo in doubt) [TUS-007]", "values": [
      {"measurement": "degradation of the G12V mutant K-Ras protein when both TUS-007 and MLN2238 were added", "setting": "[1]; MLN2238 co-added, compared with TUS-007 alone", "value": "G12D mutant and G12V mutant K-Ras protein degradation was inhibited"},
      {"measurement": "degradation (knockdown) of the G12V mutant K-Ras protein (shift of GFP/DsRed ratio graph)", "setting": "[1]; vs control (DMSO)", "value": "degradation of the G12D mutant and the G12V mutant K-Ras protein was induced"},
      {"measurement": "amount of the wild-type K-Ras protein (Western blot)", "setting": "wild-type K-Ras protein; 24 hours after addition, relative to control (DMSO)", "value": "the amount of the wild-type K-Ras protein was reduced"},
      {"measurement": "amount of the wild-type K-Ras protein when both TUS-007 and MLN2238 were added (Western blot)", "setting": "wild-type K-Ras protein; MLN2238 co-added, vs control (DMSO)", "value": "the amount of the wild-type K-Ras protein was increased as compared with the amount of the control (DMSO)"}
    ]}
  ]
}
